| SMILES | melting point [°C] |
| --- | --- |
| O=[N+]([O-])c1ccc(C2OCCO2)cc1 | 88 to 92 |
| COCC1(F)CCN(c2ccc(N3C[C@H](CNC(C)=O)OC3=O)cc2F)CC1 | 169 to 171 |
| CC(C)OC(=O)Nc1cccc2c1C(=O)C1(O)c3ccc(C(C)C)cc3OC21O (stereo not drawn) | 200 to 202 |
| CSc1ccccc1C(=O)Nc1ccccc1 | 148 to 149 |
| CNc1nc(C)c(C(=O)c2ccc(Cl)c([N+](=O)[O-])c2)s1 | 220 to 232 |
| Cc1onc(CCc2ccccc2)c1C(=O)O | 154 to 156 |
| CCCc1c(O)cccc1Oc1cc(F)ccc1C(=O)OC | 92 to 94 |
| Cc1cc2c(=O)c3ccccc3oc2c2c1OC(C(=O)O)C2 (stereo not drawn) | 292 to 295 |
| O=C(O)C=Cc1nn(-c2ccccc2)c2c1CCC2 | 223 |
| CC(C)(C)NCC(O)c1cccc(C#N)c1F (stereo not drawn) | 88 to 90 |
| CCOC(=O)c1csc(C=O)n1 | 65 to 67 |
| Cc1ccc(C(=O)OCC2OC(n3cc(C#C[Si](C)(C)C)c(=O)[nH]c3=O)CC2F)cc1 (stereo not drawn) | 130 |
| CC(=O)c1ccc(Cl)c(S(N)(=O)=O)c1 | 175 to 176 |
| Cc1cc(Br)cnc1CCCCNC1=NS(=O)N=C1NCc1cccnc1 (stereo not drawn) | 179 to 180 |
| CC(C)n1nc(C(=O)Cl)c2ccccc21 | 63 to 64 |
| CN(C)c1c(C=O)n(C)c(=O)n1-c1cccc(C(F)(F)F)c1 | 87 to 90 |
| COc1ccc(C(C)=O)cc1S(N)(=O)=O | 200 to 201 |
| O=C(NC1N=C(c2ccccc2)c2ccccc2NC1=O)c1cccc2ccccc12 (racemic) | 162 to 167 |
| NC(=O)CNC(=O)CN1CCCC1=O | 147 to 148 |
| CCOc1c(C(F)(F)F)ncn(-c2c(Cl)cc(C(F)(F)F)cc2[N+](=O)[O-])c1=O | 97.5 to 100 |

| SMILES | melting point [°C] |
| --- | --- |
| O=C1C=C(NC(=O)C(=O)c2cn(Cc3ccccc3[N+](=O)[O-])c3ccccc23)CO1 | 257 to 260 |
| CCN(CC)C(=O)CCc1ccc(N)c([N+](=O)[O-])c1 | 98 to 99 |
| C=C=CC1(NC(=O)c2ccccc2)CCCNC1=O (stereo not drawn) | 203 to 204 |
| CCOC(=O)c1sc(-c2ccccc2)nc1O | 114 to 116 |
| C[C@@]1(CN2CCN(C(=O)OCc3ccc(F)cc3)CC2)Cn2cc([N+](=O)[O-])nc2O1 | 167 to 169 |
| Cn1c(CC(=O)O)ccc1C(=O)c1ccc(Cl)cc1Cl | 165 to 166 |
| CC(=O)OC(c1cccc(Cl)c1Cl)C(Cl)(Cl)C(F)(F)F (stereo not drawn) | 92 to 95 |
| CC(C)C(C(=O)O)N(Cl)Cl (stereo not drawn) | 44 to 46 |
| Cc1cc(C)nc(N(CCN(C(C)C)C(C)C)C(N)=O)n1 | 134 to 136 |
| CC(=O)N(C)c1cccc(-c2ccnc3c(C(=O)c4cccs4)cnn23)c1 | 190 to 192 |
| CCOC(=O)c1cc(-n2c(=O)[nH]c3c(c2=O)CCC3)ccc1[N+](=O)[O-] | 205 to 208 |
| CC(=NOCCCC(=O)O)c1ccc(Cl)cc1 | 106 to 108 |
| C#CCNC(=O)N1CC(Oc2ccc(Br)cc2)C1 | 120 to 122 |
| CCCCc1cc(=O)oc2cc(O)cc(O)c12 | 236 to 237 |
| Nc1cccc2c1CNC2 | 81 to 85 |
| O=Cc1ccc(=O)[nH]c1 | 222 to 224 |
| OC1CCSC(=S)N1Cc1ccco1 (stereo not drawn) | 42 to 43 |
| COc1ccccc1SCC(=O)NCCCCCC(=O)O | 95 to 97 |
| N#CCN1C(=O)COc2cc(F)c([N+](=O)[O-])cc21 | 196 to 200 |
| Cn1ncc2c(c1=O)SCCNC2C(=O)c1ccccc1 (stereo not drawn) | 210 |

The next lines start with the values.

| melting point [°C] | SMILES |
| --- | --- |
| 160 | Cc1nc2ccc(Cl)nn2c1C(=O)c1ccc(Cl)cc1F |
| 110 to 112 | COc1cc(Oc2c(Cl)cccc2C(F)(F)F)nc(C(=O)O)c1 |
| 166 to 167 | Cc1cc(NC(=O)COc2ccccc2)cc(C)c1S(=O)(=O)C[N+](=O)[O-] |
| 101 to 105 | CCCCC1(N(C)C)CCC(c2[nH]c3ccc(F)cc3c2C)(c2[nH]c3ccccc3c2C(COC(N)=O)c2ccccc2)CC1 (stereo not drawn) |
| 229 | CS(=O)(=O)c1ccc(-c2ccc(N=[N+]=[N-])nc2-c2ccc(F)cc2)cc1 |
| 217 | CCn1nc(C2CC2)c(C(=O)O)c1Cc1ccc(-c2ccccc2S(=O)(=O)NC(=O)c2ccccc2)cc1 |
| 162 to 168 | CCCCc1nc2ccccn2c(=O)c1-c1ccc(N[C@@H]2CCN(C(=O)OC(C)(C)C)C2)cc1C |
| 144 to 145 | FC(F)(F)Sc1ccc(C=Cc2nc(COc3ccc(CCCCn4ccnn4)cc3)co2)cc1 |
| 187 to 189 | COc1ccc(COc2ccc3[nH]c4c([N+](=O)[O-])ccc(Cl)c4c(=O)c3c2)cc1 |
| 78 to 90 | CCCNC(=O)C(C)(C)Cc1ccc2c(c1)c(Cc1ccc(C(=O)O)cc1OC)cn2CCC |
| 122 to 125 | Cc1ccc(-c2nnc(N3CCCC(O)C3)nc2-c2ccc(C)cc2)cc1 (stereo not drawn) |
| 172 to 174 | FS(F)(F)(F)(F)c1ccc(/C=C/c2nc(COc3ccc(-c4nc(Cn5ccnn5)co4)cc3)co2)cc1 |
| 145 to 147 | CCC1(CCCCN2CCN(c3ccc(Cl)cc3)CC2)C(=O)Nc2cc(F)ccc21 (stereo not drawn) |
| 114 to 115 | Fc1ccccc1/C=C/c1ccc(N(c2ccccc2)c2ccccc2)cc1 |
| 171 to 172 | CCOC(=O)c1c(Nc2ccccc2)nc2ccc(Br)cc2c1Cl |
| 231 to 233 | CCc1cnc2c(NC(=O)c3c(Cl)cccc3Cl)cccc2c1C(=O)O |
| 139 to 140 | O=C(Nc1ccc(OC(F)(F)F)cc1)N1CCOC(c2ccc(Br)s2)=N1 |

| melting point [°C] | SMILES |
| --- | --- |
| 184 | CCCn1c(CCO)nc2c(N)nc3cc(OCCCNC(=O)c4cccnc4)ccc3c21 |
| 134 | CNC(=O)c1ccc(C(C)(C)CCNC(=O)NCc2ccc(N)nc2)nc1Nc1ccccc1 |
| 149 to 150 | COC(=O)c1cccc2nc(OC)n(Cc3ccc(-c4ccccc4C#N)cc3)c12 |
| 155 | CCCCOc1ccc(C(=O)Nc2ccc3cc(CN4CCN(C)CC4)cnc3c2C)c(F)c1 |
| 215 to 217 | O=C1NC(=O)C2(C(=O)N(Cc3ccc(Cl)c(Cl)c3)c3ccccc32)N1C(=O)OCc1ccccc1 (stereo not drawn) |
| 143 | CN(C)CCCNC1c2ccccc2C(=O)N1c1ccc2ccc(Cl)nc2n1 (stereo not drawn) |
| 45 to 46 | ON=Cc1cccc(Oc2ccccc2)c1 |
| 223 to 225 | Cc1cc(-c2nnc3c4ccccc4c(OCc4ccc5ccccc5n4)nn23)no1 |
| 140 to 142 | COc1ccc(S(=O)(=O)Nc2ccccc2Nc2ccccc2)cc1 |
| 193 | CC(C)(C)NCC(O)COc1ccc2oc(-c3ccc(O)c(O)c3)cc(=O)c2c1 (stereo not drawn) |
| 138 to 139 | COC(=O)c1nc(-c2ccc(CO)cc2)cc(N)c1Cl |
| 167 to 168 | Cc1cc(C)c(-n2nnc3c(-c4ccc(Cl)cc4Cl)nc(C)nc32)c(C)c1 |
| 212 to 214 | COc1cccn2c(=O)c3c(nc12)C(=Cc1ccccc1)CC3 |
| 76 to 82 | CC(=O)OCCc1c(N)cc(OCc2ccccc2)c2ccccc12 |
| 160 to 163 | Ic1ccc2c3c(cccc13)C(=NCc1ccccc1)N2 |
| 181 | COc1ccc(-c2nc(-c3ccc(Cl)c(Cl)c3)ncc2C(=O)N2CCOCC2)cc1OC |

Reference: a melting point compilation (Tetko et al.; mined from patent text by program, amines drawn as free bases though some values may be those of a salt)
